# Laboratory results as given in patent publication US7759369B2, “Pyridine compounds for the treatment of prostaglandin mediated diseases” (Glaxo Group Limited, priority 2004, dated 2010).
# Counter-ions that a name gives are not always drawn.
# Columns and labels:
# Type in all cases: cell-based
# [1] = target: T1, EP1 receptors (Homo sapiens, UniProt P34995); test: human EP1 calcium mobilisation assay (CHO-K1 cells, PGE2, FLIPR); set-up: expressed in transfected cells; host or cells: CHO-K1; settings: free bases or sodium salts; averages of a number of experiments; read-out: functional pKi value, human EP1 calcium mobilisation assay (converted)
# T1 sequence (P34995 1-402): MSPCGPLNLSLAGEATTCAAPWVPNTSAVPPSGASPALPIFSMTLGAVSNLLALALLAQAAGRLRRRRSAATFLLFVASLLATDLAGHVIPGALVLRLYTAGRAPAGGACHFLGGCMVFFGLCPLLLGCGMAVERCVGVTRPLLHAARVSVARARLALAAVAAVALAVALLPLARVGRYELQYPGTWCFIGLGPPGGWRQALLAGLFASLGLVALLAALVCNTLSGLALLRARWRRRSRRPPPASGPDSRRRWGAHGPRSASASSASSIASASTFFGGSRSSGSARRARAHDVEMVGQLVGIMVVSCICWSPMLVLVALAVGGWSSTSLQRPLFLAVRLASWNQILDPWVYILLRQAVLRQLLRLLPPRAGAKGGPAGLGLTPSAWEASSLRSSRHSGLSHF
# Protocol: (§1) Briefly, the antagonist properties of compounds are assessed by their ability to inhibit the mobilisation of intracellular calcium ([Ca^2+]i) in response to activation of EP1 or EP3 receptors by the natural agonist hormone prostaglandin E2 (PGE2). Increasing concentrations of antagonist reduce the amount of calcium that a given concentration of PGE2 can mobilise. The net effect is to displace the PGE2 concentration-effect curve to higher concentrations of PGE2. The amount of calcium produced is assessed using a calcium-sensitive fluorescent dye such as Fluo-4, AM and a suitable instrument such as a Fluorimetric Imaging Plate Reader (FLIPR). Increasing amounts of [Ca^2+]i produced by receptor activation increase the amount of fluorescence produced by the dye and give rise to an increasing signal. The signal may be detected using the FLIPR instrument and the data generated may be analysed with suitable curve-fitting software.
# (§2) The human EP1 or EP3 calcium mobilisation assay (hereafter referred to as ‘the calcium assay’) utilises Chinese hamster ovary-K1 (CHO-K1) cells into which a stable (pCIN; BioTechniques 20 (1996): 102-110) vector containing either EP1 or EP3 cDNA has previously been transfected. Cells are cultured in suitable flasks containing culture medium such as DMEM:F-12 supplemented with 10% v/v foetal calf serum, 2 mM L-glutamine, 0.25 mg/ml geneticin, 100 μM flurbiprofen and 10 µg/ml puromycin.
# (§3) For assay, cells are harvested using a proprietary reagent that dislodges cells such as Versene. Cells are re-suspended in a suitable quantity of fresh culture media for introduction into a 384-well plate. Following incubation for 24 hours at 37° C. the culture media is replaced with a medium containing Fluo-4 and the detergent pluronic acid, and a further incubation takes place. Concentrations of compounds are then added to the plate in order to construct concentration-effect curves. This may be performed on the FLIPR in order to assess the agonist properties of the compounds. Concentrations of PGE2 are then added to the plate in order to assess the antagonist properties of the compounds.
# (§4) The data so generated may be analysed by means of a computerised curve-fitting routine. The concentration of compound that elicits a half-maximal inhibition of the calcium mobilisation induced by PGE2 (pIC50) may then be estimated.
# [2] = target: T2, TP receptor (Homo sapiens, UniProt P21731); test: human TP calcium mobilisation assay (CHO-K1 cells, U46619, FLIPR); settings: free bases or sodium salts; read-out: functional pKi, human TP calcium mobilisation assay (converted)
# T2 construct: expressed in transfected cells; host or cells: CHO-K1
# T2 sequence (P21731 1-343): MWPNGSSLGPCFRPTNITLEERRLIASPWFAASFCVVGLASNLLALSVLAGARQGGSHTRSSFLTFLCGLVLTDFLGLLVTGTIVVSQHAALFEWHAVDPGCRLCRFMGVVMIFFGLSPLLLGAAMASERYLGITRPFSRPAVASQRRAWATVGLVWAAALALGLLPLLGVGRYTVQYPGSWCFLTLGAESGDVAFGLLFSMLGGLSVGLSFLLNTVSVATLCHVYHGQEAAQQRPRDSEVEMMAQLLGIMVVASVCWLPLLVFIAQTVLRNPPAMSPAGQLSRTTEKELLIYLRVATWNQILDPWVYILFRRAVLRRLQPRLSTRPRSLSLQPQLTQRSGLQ
# Protocol: as §1, with “To determine if a compound has agonist or antagonist activity at the TP receptor a functional calcium mobilisation assay may be performed. Briefly,” for “Briefly,”, “TP” for “EP1 or EP3”, “stable TXA2 mimetic U46619 (9,11-dideoxy-11α,9α-epoxy-methanoprostaglandin F2 α; commercially available from e.g Sigma-Aldrich).” for “natural agonist hormone prostaglandin E2 (PGE2).”, “U46619” for “PGE2”, “curve.” for “curve to higher concentrations of PGE2.”, “software. The agonist activity of the compounds are determined by their ability to cause an increase in intracellular mobilisation in the absence of U46619.” for “software.”
# as §2, with “TP” for “EP1 or EP3”, “assay” for “assay (hereafter referred to as ‘the calcium assay’)”, “TP” for “either EP1 or EP3”, “μg/ml” for “µg/ml”
# as §3, with “96-well” for “384-well”, “U46619” for “PGE2”
# The data so generated may be analysed by means of a computerised curve-fitting routine. The concentration of compound that elicits a half-maximal inhibition of the calcium mobilisation induced by U46619 (plC50) may then be estimated, and the percentage activation caused by the compounds directly can be used to determine if there is any agonism present.
# [3] = target: T3, EP3 receptors (Homo sapiens, UniProt P43115); test: human EP3 calcium mobilisation assay (CHO-K1 cells, PGE2, FLIPR); settings: free bases or sodium salts; averages of a number of experiments; read-out: functional pKi value, human EP3 calcium mobilisation assay (converted)
# T3 construct: expressed in transfected cells; host or cells: CHO-K1
# T3 sequence (P43115 1-390): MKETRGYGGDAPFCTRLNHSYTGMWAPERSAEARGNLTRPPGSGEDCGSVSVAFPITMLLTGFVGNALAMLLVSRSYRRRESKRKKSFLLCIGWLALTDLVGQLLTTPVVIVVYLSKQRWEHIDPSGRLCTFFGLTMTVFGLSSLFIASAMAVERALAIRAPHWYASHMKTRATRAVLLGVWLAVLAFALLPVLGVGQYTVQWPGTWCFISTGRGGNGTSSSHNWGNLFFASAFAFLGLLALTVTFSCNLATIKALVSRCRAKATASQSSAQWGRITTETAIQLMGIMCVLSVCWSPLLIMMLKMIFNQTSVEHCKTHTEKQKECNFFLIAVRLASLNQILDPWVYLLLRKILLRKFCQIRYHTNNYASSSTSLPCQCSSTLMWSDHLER
# Protocol: as §1, §2, §3, §4
Ki [1] [nM],Ki [2] [nM],Ki [3] [nM],SMILES
< 1000,< 1000,> 10000,"O=C(O)c1cccc(Cc2cc(Cl)ccc2OCc2ccc(Cl)cc2)n1 [Example 9, Sodium 6-[(5-chloro-2-{[(4-chlororophenyl)methyl]oxy}phenyl)methyl]-2-pyridinecarboxylate]"
≤ 31.6,> 1000,–,"O=C(O)c1cccc(Cc2cc(Cl)ccc2OCc2ccccc2Cl)n1 [Example 13, Sodium 6-[(5-chloro-2-{[(2-chlorophenyl)methyl]oxy}phenyl)methyl]-2-pyridinecarboxylate]"
< 1000,< 1000,–,"O=C(O)c1cccc(Cc2cc(Cl)ccc2OCc2ccc(F)cc2)n1 [Example 5, sodium 6-[(5-chloro-2-{[(4-fluorophenyl)methyl]oxy}phenyl)methyl]-2-pyridinecarboxylate]"
≤ 31.6,–,> 10000,"C=C(C)COc1ccc(Cl)cc1Cc1cccc(C(=O)O)n1 [Example 2, 6-({5-Chloro-2-[(2-methyl-2-propen-1-yl)oxy]phenyl}methyl)-2-pyridinecarboxylic acid]"
≤ 31.6,–,–,"O=C(O)c1cc(Cl)cc(Cc2cc(Cl)ccc2OCc2ccc(Cl)cc2F)n1 [Example 37, 4-Chloro-6-[(5-chloro-2-{[(4-chloro-2-fluorophenyl)-methyl]oxy}phenyl)methyl]-2-pyridinecarboxylic acid, sodium salt]"
< 1000,> 1000,> 10000,"CC(C)COc1ccc(Cl)cc1Cc1cccc(C(=O)O)n1 [Example 15, Sodium 6-({5-chloro-2-[(2-methylpropyl)oxy]phenyl}methyl)-2-pyridinecarboxylate]"
≤ 31.6,–,–,"O=C(O)c1cccc(Cc2cc(Cl)ccc2OCC2CCCCC2)n1 [Example 18, Sodium 6-({5-chloro-2-[(cyclohexylmethyl)oxy]phenyl}methyl)-2-pyridinecarboxylate]"
< 1000,–,–,"CCC(CC)COc1ccc(Cl)cc1Cc1cccc(C(=O)O)n1 [Example 20, Sodium 6-({5-chloro-2-[(2-ethylbutyl)oxy]phenyl}methyl)-2-pyridinecarboxylate]"
–,> 1000,–,"O=C(O)c1cccc(Cc2cc(Cl)ccc2OCc2ccccc2)n1 [Example 1, 6-({5-Chloro-2-[(phenylmethyl)oxy]phenyl}methyl)-2-pyridinecarboxylic acid]"
< 1000,–,> 10000,"O=C(O)c1cccc(Cc2cc(Cl)ccc2OC2CCCC2)n1 [Example 19, Sodium 6-{[5-chloro-2-(cyclopentyloxy)phenyl]methyl}-2-pyridinecarboxylate]"
> 1000,–,> 10000,"COc1ccc(S(=O)(=O)NC(=O)c2cccc(Cc3cc(Cl)ccc3OCc3ccc(Cl)cc3F)n2)cc1 [Example 32, 6-[(5-Chloro-2-{[(4-chloro-2-fluorophenyl)methyl]oxy}-phenyl)methyl]-N-{[4-methoxyphenyl]suiphonyl}-2-pyridine-carboxamide]"
< 1000,–,> 10000,"CC(=O)Nc1ccc(S(=O)(=O)NC(=O)c2cccc(Cc3cc(Cl)ccc3OCc3ccc(Cl)cc3F)n2)cc1 [Example 35, N-{[4-(Acetylamino)phenyl]-sulphonyl}-6-[(5-chloro-2-{[(4-chloro-2-fluorophenyl)methyl]-oxy}phenyl)methyl]-2-pyridine-carboxamide]"
> 1000,–,> 10000,"Cc1ccc(Cc2cc(Cl)ccc2OCc2ccc(Cl)cc2F)nc1C(=O)O [Example 40, 6-[(5-Chloro-2-{[(4-chloro-2-fluorophenyl)methyl]oxy}-phenyl)methyl]-3-methyl-2-pyridinecarboxylic acid, sodium salt]"
< 1000,–,> 10000,"CC(C)Oc1ccc(Cl)cc1Cc1cccc(C(=O)O)n1 [Example 16, Sodium 6-({5-chloro-2-[(1-methylethyl)oxy]phenyl}methyl)-2-pyridinecarboxylate]"
< 1000,< 1000,–,"O=C(O)c1cccc(Cc2cc(Cl)ccc2OCc2c(F)cc(F)cc2F)n1 [Example 6, Sodium 6-[(5-chloro-2-{[(2,4,6-trifluorophenyl)methyl]oxy}phenyl)methyl]-2-pyridinecarboxylate]"
> 1000,–,> 10000,O=C(NS(=O)(=O)c1cc(Cl)cc(Cl)c1)c1cccc(Cc2cc(Cl)ccc2OCc2ccc(Cl)cc2F)n1 [Example 31]
< 1000,< 1000,–,"O=C(O)c1cccc(Cc2cc(Cl)ccc2OCc2ccc(F)c(F)c2F)n1 [Example 7, Sodium 6-[(5-chloro-2-{[(2,3,4-trifluorophenyl)methyl]oxy}phenyl)methyl]-2-pyridinecarboxylate]"
< 1000,–,> 10000,"O=C(O)c1cccc(Cc2cc(Cl)ccc2OCC2CC2)n1 [Example 17, Sodium 6-({5-chloro-2-[(cyclopropylmethyl)oxy]phenyl}methyl)-2-pyridinecarboxylate]"
